# Residue numbers refer to the chain shown, from its start. Activity calls are given as the source filed them. The calls are words filed in the database; no cut-off is given here.
# How the values were obtained:
# Homo sapiens = organism: Homo sapiens; experiment: (§1) Chaperone activity assessed as enhancement of human alpha GAL-A R122H mutant enzyme activity expressed in COS7 cells at 10 to 100 uM at pH 4.6 pretreated for 60 hrs followed by 4MU-alpha-galactopyranoside substrate addition in presence of N-acetylgalactosamine measured after 1 hr by fluorescence assay relative to control; assay type: cell-based
# [1] = system: T1, Alpha-galactosidase A (Homo sapiens), P06280 [P205T]; experiment: as §1, with “P205T” for “R122H”; assay type: cell-based
# T1 sequence (whole entry): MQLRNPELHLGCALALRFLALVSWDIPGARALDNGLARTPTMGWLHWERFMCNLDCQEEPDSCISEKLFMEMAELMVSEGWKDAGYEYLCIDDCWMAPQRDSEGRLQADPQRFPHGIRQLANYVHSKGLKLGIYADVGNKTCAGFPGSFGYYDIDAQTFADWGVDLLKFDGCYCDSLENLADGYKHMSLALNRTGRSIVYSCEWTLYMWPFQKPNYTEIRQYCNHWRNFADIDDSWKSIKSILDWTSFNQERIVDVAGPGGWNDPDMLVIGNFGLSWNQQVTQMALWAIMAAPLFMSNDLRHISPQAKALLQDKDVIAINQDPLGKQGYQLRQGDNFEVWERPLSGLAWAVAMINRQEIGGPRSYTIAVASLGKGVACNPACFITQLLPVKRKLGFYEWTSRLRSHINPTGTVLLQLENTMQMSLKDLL
# [2] = system: T2, Alpha-galactosidase A (Homo sapiens), P06280 [Q279E]; experiment: as §1, with “Q279E” for “R122H”; assay type: cell-based
# T2 sequence (whole entry): T1 sequence (whole entry) with T205P, Q279E
# [3] = system: T3, Alpha-galactosidase A (Homo sapiens), P06280 [R363C]; experiment: as §1, with “R363C” for “R122H”; assay type: cell-based
# T3 sequence (whole entry): T1 sequence (whole entry) with T205P, R363C
# Prunus dulcis = experiment: Inhibition of almond beta-glucosidase at 100 uM using p-nitrophenyl-glycopyranoside or 4-methylumbelliferyl-glycopyranoside as substrate by spectrophotometric method relative to control
# Helix = experiment: Inhibition of helix beta-mannosidase at 100 uM using p-nitrophenyl-glycopyranoside or 4-methylumbelliferyl-glycopyranoside as substrate by spectrophotometric method relative to control
# Alpha-galactosidase A = biological target: T4, Alpha-galactosidase A (Homo sapiens, UniProt P06280); experiment: Non-competitive inhibition of recombinant human alpha GAL-A using varying levels of 4-methylumbelliferyl alpha-D-galactopyranoside substrate at pH 7 Lineweaver-burk plot analysis
# T4 sequence (P06280 whole entry): T1 sequence (whole entry) with T205P
smiles,measurement,setting,value
O=C(CCCCC1CCCCC1)NC[C@H]1N[C@H](CO)[C@H](O)[C@@H]1O,Activity,Homo sapiens,Active
same,Activity,[1],Active
same,Activity,[2],Active
same,Activity,[3],Active
same,inhibition,Prunus dulcis,< 5%
same,inhibition,Helix,< 5%
same,Ki,Alpha-galactosidase A,2 µM

# — ChEMBL document CHEMBL4002542, “Rapid preparation of (3R,4S,5R) polyhydroxylated pyrrolidine-based libraries to discover a pharmacological chaperone for treatment of Fabry disease” (Eur J Med Chem, 2017)
